Experimental data published in patent US9388389B2, “JFH-1 based HCV cell culture systems for NS5A of genotypes 1-7” (Hvidovre Hospital, priority 2009, dated 2016).

How the values were obtained:
Assay in all cases: BMS-790052 treatment of infected cultures
Assay type in all cases: cell-based, hepatitis C virus
[1] = system: J6/JFH1 with NS5A mutation C92E
Experimental: (§1) 5×10^3 naïve Huh7.5 cells were plated per well in a poly-D-lysine coated 96-well plate (Nunc, Roskilde, D K) one day before infection with different recombinant viruses. Infectious doses were chosen to aim at 400-1000 single infected cells in non-treated wells at the end of the experiment. J6/JFH1 was included with two infectious doses (high and low) to control for impact of dose variability. The infectious dose of other recombinants was in the range between. […] On day three cells were fixed and immunostained for NS3 expression as described above. In parallel, cell viability was monitored with CellTiter™ 96 AQueous One Solution Cell Proliferation Assay (Promega, Madison, Wis. USA). The number of single infected cells was determined by automated counting of individual wells as described above.
(§2) To improve HCV treatment, much attention has been drawn to development of specific small molecule HCV inhibitors, including inhibitors of NS5A. Using the NS5A genotype recombinants, we investigated sensitivity to the NS5A inhibitor most advanced in clinical trials, BMS-790052. Treatment experiments using the specific NS5A inhibitor BMS-790052 (synthesized by Acme Bioscience, Palo Alto, Calif., USA) were conducted similar to what was described for interferon-alpha.
(§3) The best described resistance mutation for this drug class, change of NS5A residue 93, induced >10-fold resistance to BMS-790052 for genotype 1 replicons. We changed this residue to histidine in the NS5A genotype 1-6 recombinants; QC69(7a) naturally had histidine. In BMS-790052 treatment experiments, H77C(1a)-Y93H, JFH1(2a)-Y93H and S52(3a)-Y93H were >1000-fold, J4(1b)-Y93H, J6(2a)-Y93H and ED43(4a)-Y93H˜100-fold, and SA13(5a)-T93H and HK6a(6a)-T93H<5-fold more resistant than the respective original recombinants (Table 21). […] The presence of L31M in the J6(2a) isolate and C92E in the S52(3a) isolate corresponded to the higher resistance of these isolates. Further, the lower sensitivity of J1(1a) compared to other 1a recombinants could be caused by the histidine found at NS5A residue 30, previously associated with resistance in patients.

S52(3a)-Y93H = system: S52(3a)-Y93H
Experimental: as §1, §2, §3

SA13(5a)-T93H = system: SA13(5a)-T93H
Experimental: as §1, §2, §3

J6(2a)-Y93H = system: J6(2a)-Y93H
Experimental: as §1, §2, §3

[2] = system: J6/JFH1 with JFH1 NS5A domain I exchanged to the J6 sequence
Experimental: as §1, §2, §3

HK6a(6a)-T93H = system: HK6a(6a)-T93H
Experimental: as §1, §2, §3

J4(1b)-Y93H = system: J4(1b)-Y93H
Experimental: as §1, §2, §3

JFH1(2a)-Y93H = system: JFH1(2a)-Y93H
Experimental: as §1, §2, §3

[3] = system: J6/JFH1 with NS5A mutation L31M
Experimental: as §1, §2, §3

H77C(1a)-Y93H = system: H77C(1a)-Y93H
Experimental: as §1, §2, §3

ED43(4a)-Y93H = system: ED43(4a)-Y93H
Experimental: as §1, §2, §3

SMILES: COC(=O)N[C@H](C(=O)N1CCC[C@H]1c1nc(-c2ccc(-c3ccc(-c4c[nH]c([C@@H]5CCCN5C(=O)[C@@H](NC(=O)OC)C(C)C)n4)cc3)cc2)c[nH]1)C(C)C [BMS-790052]
- EC50 ([1]; Hepatitis C virus, JFH1(2a), NS5A mutation C92E, single experiment of three replicates, read-out: NS5A inhibitor, EC50 (nM), putative resistance mutant): 14 nM
- Fold resistance compared to original ([1]; JFH1(2a) C92E vs original JFH1(2a)): 170 fold
- resistance ([1]; NS5A C92E in the J6/JFH1 background): confer resistance
- EC50 (S52(3a)-Y93H; Hepatitis C virus, S52(3a), NS5A mutation Y93H, read-out: NS5A inhibitor, EC50 (nM), putative resistance mutant): 1900 nM
- Fold resistance compared to original (S52(3a)-Y93H; S52(3a) Y93H vs original S52(3a)): 2100 fold
- fold more resistant than the respective original recombinant (S52(3a)-Y93H; S52(3a)-Y93H): > 1000 fold
- EC50 (SA13(5a)-T93H; Hepatitis C virus, SA13(5a), NS5A mutation T93H, read-out: NS5A inhibitor, EC50 (nM), putative resistance mutant): 0.14 nM
- Fold resistance compared to original (SA13(5a)-T93H; SA13(5a) T93H vs original SA13(5a)): 4.2 fold
- fold more resistant than the respective original recombinant (SA13(5a)-T93H; SA13(5a)-T93H): < 5 fold
- EC50 (J6(2a)-Y93H; Hepatitis C virus, J6(2a), NS5A mutation Y93H, read-out: NS5A inhibitor, EC50 (nM), putative resistance mutant): 2000 nM
- Fold resistance compared to original (J6(2a)-Y93H; J6(2a) Y93H vs original J6(2a)): 140 fold
- fold more resistant than the respective original recombinant (J6(2a)-Y93H; J6(2a)-Y93H): ~100 fold
- EC50 ([2]; Hepatitis C virus, genotype 2a, J6 (domain I), single experiment of three replicates, read-out: NS5A inhibitor, EC50 (nM), original): 19 nM
- resistance ([2]; exchange of JFH1 NS5A domain I to the corresponding J6 sequence): confer resistance
- Fold resistance compared to original (HK6a(6a)-T93H; HK6a(6a) T93H vs original HK6a(6a)): 4.3 fold
- fold more resistant than the respective original recombinant (HK6a(6a)-T93H; HK6a(6a)-T93H): < 5 fold
- EC50 (HK6a(6a)-T93H; Hepatitis C virus, HK6a(6a), NS5A mutation T93H, read-out: NS5A inhibitor, EC50 (nM), putative resistance mutant): 0.14 nM
- EC50 (J4(1b)-Y93H; Hepatitis C virus, J4(1b), NS5A mutation Y93H, read-out: NS5A inhibitor, EC50 (nM), putative resistance mutant): 0.77 nM
- Fold resistance compared to original (J4(1b)-Y93H; J4(1b) Y93H vs original J4(1b)): 82 fold
- fold more resistant than the respective original recombinant (J4(1b)-Y93H; J4(1b)-Y93H): ~100 fold
- EC50 (JFH1(2a)-Y93H; Hepatitis C virus, JFH1(2a), NS5A mutation Y93H, read-out: NS5A inhibitor, EC50 (nM), putative resistance mutant): 140 nM
- Fold resistance compared to original (JFH1(2a)-Y93H; JFH1(2a) Y93H vs original JFH1(2a)): 1600 fold
- fold more resistant than the respective original recombinant (JFH1(2a)-Y93H; JFH1(2a)-Y93H): > 1000 fold
- EC50 ([3]; Hepatitis C virus, JFH1(2a), NS5A mutation L31M, single experiment of three replicates, read-out: NS5A inhibitor, EC50 (nM), putative resistance mutant): 17 nM
- Fold resistance compared to original ([3]; JFH1(2a) L31M vs original JFH1(2a)): 190 fold
- resistance ([3]; NS5A L31M in the J6/JFH1 background): confer resistance
- Fold resistance compared to original (H77C(1a)-Y93H; H77C(1a) Y93H vs original H77C(1a)): 4300 fold
- fold more resistant than the respective original recombinant (H77C(1a)-Y93H; H77C(1a)-Y93H): > 1000 fold
- EC50 (H77C(1a)-Y93H; Hepatitis C virus, H77C(1a), NS5A mutation Y93H, read-out: NS5A inhibitor, EC50 (nM), putative resistance mutant): 110 nM
- Fold resistance compared to original (ED43(4a)-Y93H; ED43(4a) Y93H vs original ED43(4a)): 30 fold
- fold more resistant than the respective original recombinant (ED43(4a)-Y93H; ED43(4a)-Y93H): ~100 fold
- EC50 (ED43(4a)-Y93H; Hepatitis C virus, read-out: NS5A inhibitor, EC50 (nM), putative resistance mutant): 0.53 nM
